From ChEMBL document CHEMBL5385907, “Proline-Hinged α-Helical Peptides Sensitize Gram-Positive Antibiotics, Expanding Their Physicochemical Properties to Be Used as Gram-Negative Antibiotics” (J Med Chem, 2024)
Values after ≈ are worked out from the molar mass of the structure shown. Residues, ends and D or L forms follow the SMILES beside them.

How the values were obtained:
[1] = Hemolytic activity in human blood assessed as hemolysis incubated for 6 hrs by microplate reader analysis; assay type: toxicity, tissue-based
Acinetobacter baumannii = experiment: Antibacterial activity against Acinetobacter baumannii ATCC 17978 assessed as inhibition of bacterial growth incubated for 18 hrs by two fold serial dilution assay; assay type: functional
[2] = Hydrophobicity of the compound assessed as retention time by reversed-phase HPLC analysis; assay type: physicochemical
Escherichia coli = experiment: Antibacterial activity against Escherichia coli ATCC 25922 assessed as inhibition of bacterial growth incubated for 18 hrs by two fold serial dilution assay; assay type: functional
Klebsiella pneumoniae = experiment: Antibacterial activity against Klebsiella pneumoniae ATCC 700603 assessed as inhibition of bacterial growth incubated for 18 hrs by two fold serial dilution assay; assay type: functional

Compound	MHC10 [1]	MIC (Acinetobacter baumannii)	Retention_time [2]	MIC (Escherichia coli)	MIC (Klebsiella pneumoniae)
CCCC(=O)N[C@@H](CC(N)=O)C(=O)N[C@@H](Cc1c[nH]cn1)C(=O)N[C@@H](CCCCN)C(=O)N[C@@H](CCCCN)C(=O)N[C@@H](C)C(=O)N[C@@H](CC(C)C)C(=O)N[C@@H](CCCCN)C(=O)N[C@@H](CC(C)C)C(=O)N[C@@H](C)C(=O)N[C@@H](CCCCN)C(=O)N[C@@H](CCCCN)C(=O)N1CCC[C@H]1C(=O)N[C@@H](CC(C)C)C(=O)N[C@@H](CCCCN)C(=O)N[C@@H](CC(C)C)C(=O)N[C@@H](CC(C)C)C(=O)N[C@@H](CCCCN)C(=O)N[C@@H](CS)C(N)=O (HELM PEPTIDE1{[CCCC(=O)[*:2]].N.H.K.K.A.L.K.L.A.K.K.P.L.K.L.L.K.C.[am]}$$$$V2.0)	> 160 µM	> 80 µM	16.1 min	> 80 µM	> 80 µM
CCCCCC(=O)N[C@@H](CCCCN)C(=O)N[C@@H](CCCCN)C(=O)N[C@@H](C)C(=O)N[C@@H](CC(C)C)C(=O)N[C@@H](CCCCN)C(=O)N[C@@H](CC(C)C)C(=O)N[C@@H](C)C(=O)N[C@@H](CCCCN)C(=O)N[C@@H](CCCCN)C(=O)N1CCC[C@H]1C(=O)N[C@@H](CC(C)C)C(=O)N[C@@H](CCCCN)C(=O)N[C@@H](CC(C)C)C(=O)N[C@@H](CC(C)C)C(=O)N[C@@H](CCCCN)C(N)=O (HELM PEPTIDE1{[CCCCCC(=O)[*:2]].K.K.A.L.K.L.A.K.K.P.L.K.L.L.K.[am]}$$$$V2.0)	> 160 µM	80 µM (≈ 145 µg/mL)	17.1 min	> 80 µM	> 80 µM
CCCCCCCCCC(=O)N[C@@H](CCCCN)C(=O)N[C@@H](CCCCN)C(=O)N[C@@H](C)C(=O)N[C@@H](CC(C)C)C(=O)N[C@@H](CCCCN)C(=O)N[C@@H](CC(C)C)C(=O)N[C@@H](C)C(=O)N[C@@H](CCCCN)C(=O)N[C@@H](CCCCN)C(=O)N1CCC[C@H]1C(=O)N[C@@H](CC(C)C)C(=O)N[C@@H](CCCCN)C(=O)N[C@@H](CC(C)C)C(=O)N[C@@H](CC(C)C)C(=O)N[C@@H](CCCCN)C(N)=O (HELM PEPTIDE1{[CCCCCCCCCC(=O)[*:2]].K.K.A.L.K.L.A.K.K.P.L.K.L.L.K.[am]}$$$$V2.0)	> 160 µM	5 µM (≈ 9.37 µg/mL)	19.4 min	40 µM (≈ 74.9 µg/mL)	> 80 µM
CCCCCCCCCCCC(=O)N[C@@H](CCCCN)C(=O)N[C@@H](CCCCN)C(=O)N[C@@H](C)C(=O)N[C@@H](CC(C)C)C(=O)N[C@@H](CCCCN)C(=O)N[C@@H](CC(C)C)C(=O)N[C@@H](C)C(=O)N[C@@H](CCCCN)C(=O)N[C@@H](CCCCN)C(=O)N1CCC[C@H]1C(=O)N[C@@H](CC(C)C)C(=O)N[C@@H](CCCCN)C(=O)N[C@@H](CC(C)C)C(=O)N[C@@H](CC(C)C)C(=O)N[C@@H](CCCCN)C(N)=O (HELM PEPTIDE1{[CCCCCCCCCCCC(=O)[*:2]].K.K.A.L.K.L.A.K.K.P.L.K.L.L.K.[am]}$$$$V2.0)	160 µM	2.5 µM (≈ 4.75 µg/mL)	20.4 min	10 µM (≈ 19 µg/mL)	80 µM (≈ 152 µg/mL)
CCCCCCCCCCCCCC(=O)N[C@@H](CCCCN)C(=O)N[C@@H](CCCCN)C(=O)N[C@@H](C)C(=O)N[C@@H](CC(C)C)C(=O)N[C@@H](CCCCN)C(=O)N[C@@H](CC(C)C)C(=O)N[C@@H](C)C(=O)N[C@@H](CCCCN)C(=O)N[C@@H](CCCCN)C(=O)N1CCC[C@H]1C(=O)N[C@@H](CC(C)C)C(=O)N[C@@H](CCCCN)C(=O)N[C@@H](CC(C)C)C(=O)N[C@@H](CC(C)C)C(=O)N[C@@H](CCCCN)C(N)=O (HELM PEPTIDE1{[CCCCCCCCCCCCCC(=O)[*:2]].K.K.A.L.K.L.A.K.K.P.L.K.L.L.K.[am]}$$$$V2.0)	53 µM	1.3 µM (≈ 2.51 µg/mL)	21.7 min	5 µM (≈ 9.65 µg/mL)	20 µM (≈ 38.6 µg/mL)
NCC[C@H](O)C(=O)N[C@@H]1C[C@H](N)[C@@H](O[C@H]2O[C@H](CN)[C@@H](O)[C@H](O)[C@H]2O)[C@H](O)[C@H]1O[C@H]1O[C@H](CO)[C@@H](O)[C@H](N)[C@H]1O [AMIKACIN]	–	2.5 µM (≈ 1.46 µg/mL)	–	5 µM (≈ 2.93 µg/mL)	2.5 µM (≈ 1.46 µg/mL)
